According to ChEMBL document CHEMBL5465560, “Selectivity Literature for EUbOPEN Chemogenomic Library” (2024):
Each block holds one compound with its values, some of them ahead of it.

Tests used:
[1] = biological target: T1, Serine/threonine-protein kinase ULK3 (Homo sapiens) (UniProt Q6PHR2); experiment: Selectivity interaction (LanthaScreen Eu Kinase Binding Assay) EUB0001632a ULK3; details: at 10 µM
T1 sequence (whole entry): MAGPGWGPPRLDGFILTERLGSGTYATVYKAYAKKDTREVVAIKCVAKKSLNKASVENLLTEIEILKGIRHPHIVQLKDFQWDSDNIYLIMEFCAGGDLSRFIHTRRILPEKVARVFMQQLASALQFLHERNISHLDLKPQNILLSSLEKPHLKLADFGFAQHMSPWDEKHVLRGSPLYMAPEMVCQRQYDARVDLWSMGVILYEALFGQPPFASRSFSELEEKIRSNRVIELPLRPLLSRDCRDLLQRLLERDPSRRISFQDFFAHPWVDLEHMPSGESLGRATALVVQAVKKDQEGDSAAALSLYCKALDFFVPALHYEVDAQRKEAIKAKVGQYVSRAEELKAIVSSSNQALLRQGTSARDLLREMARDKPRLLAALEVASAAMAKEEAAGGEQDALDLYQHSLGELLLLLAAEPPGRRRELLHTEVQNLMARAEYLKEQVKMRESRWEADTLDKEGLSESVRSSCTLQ

[2] = biological target: Protein kinase C delta type (Homo sapiens) (UniProt Q05655); experiment: Selectivity interaction (Kinase panel (Z-LYTE Assay)) EUB0001632a PRKCD; details: at 10 µM
[3] = biological target: T2, Rhodopsin kinase GRK7 (Homo sapiens) (UniProt Q8WTQ7); experiment: Selectivity interaction (Kinase panel (Invitrogen)) EUB0000639a GRK7; details: at 200 nM
T2 sequence (whole entry): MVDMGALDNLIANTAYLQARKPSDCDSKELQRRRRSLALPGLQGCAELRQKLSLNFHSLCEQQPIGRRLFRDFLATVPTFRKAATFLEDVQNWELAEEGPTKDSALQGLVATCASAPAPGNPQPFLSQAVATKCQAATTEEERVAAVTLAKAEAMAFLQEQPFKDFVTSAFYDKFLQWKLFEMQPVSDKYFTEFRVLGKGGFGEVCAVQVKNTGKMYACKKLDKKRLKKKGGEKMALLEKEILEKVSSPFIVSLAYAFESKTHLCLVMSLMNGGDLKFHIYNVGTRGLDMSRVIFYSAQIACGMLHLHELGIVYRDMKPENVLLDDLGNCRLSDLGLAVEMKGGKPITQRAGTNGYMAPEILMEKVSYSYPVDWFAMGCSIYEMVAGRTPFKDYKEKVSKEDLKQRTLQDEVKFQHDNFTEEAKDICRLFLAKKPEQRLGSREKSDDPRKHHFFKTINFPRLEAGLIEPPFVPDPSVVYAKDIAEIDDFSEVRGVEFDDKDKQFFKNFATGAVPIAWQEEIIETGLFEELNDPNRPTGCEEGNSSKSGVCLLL

[4] = biological target: Serine/threonine-protein kinase tousled-like 2 (Homo sapiens) (UniProt Q86UE8); experiment: Selectivity interaction (ActivX KiNativ screen (kinase selectivity in THP-1 cell lysates)) EUB0000639a TLK2; assay type: subcellular; details: lysate, at 1 µM
[5] = biological target: Cyclin-dependent kinase 5 (Homo sapiens, UniProt Q00535); experiment: Selectivity interaction (KinomeScan (DiscoverX)) EUB0001049a CDK5; details: at 1 µM
[6] = biological target: T3, Serine/threonine-protein kinase Nek11 (Homo sapiens) (UniProt Q8NG66); experiment: Selectivity interaction (KinomeScan (DiscoverX)) EUB0000655a NEK11; details: at 10 µM
T3 sequence (whole entry): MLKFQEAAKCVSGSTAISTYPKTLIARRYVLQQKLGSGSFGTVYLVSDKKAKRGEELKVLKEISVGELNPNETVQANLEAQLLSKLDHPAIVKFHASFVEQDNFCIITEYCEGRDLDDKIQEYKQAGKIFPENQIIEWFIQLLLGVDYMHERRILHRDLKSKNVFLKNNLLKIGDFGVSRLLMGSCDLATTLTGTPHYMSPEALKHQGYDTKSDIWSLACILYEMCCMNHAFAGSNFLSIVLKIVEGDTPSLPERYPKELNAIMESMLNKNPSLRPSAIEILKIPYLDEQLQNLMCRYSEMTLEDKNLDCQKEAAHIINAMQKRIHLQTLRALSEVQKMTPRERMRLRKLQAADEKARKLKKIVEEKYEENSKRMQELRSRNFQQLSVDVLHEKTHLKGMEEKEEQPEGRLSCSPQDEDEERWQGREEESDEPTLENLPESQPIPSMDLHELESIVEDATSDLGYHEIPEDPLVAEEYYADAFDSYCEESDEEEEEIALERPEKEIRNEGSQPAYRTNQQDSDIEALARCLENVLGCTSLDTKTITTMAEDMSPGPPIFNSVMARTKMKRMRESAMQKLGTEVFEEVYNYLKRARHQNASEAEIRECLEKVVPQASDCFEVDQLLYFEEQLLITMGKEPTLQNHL

[7] = biological target: T4, Mitogen-activated protein kinase kinase kinase 12 (Homo sapiens) (UniProt Q12852); experiment: Selectivity interaction (KinomeScan (DiscoverX)) EUB0000655a MAP3K12; details: at 10 µM
T4 sequence (whole entry): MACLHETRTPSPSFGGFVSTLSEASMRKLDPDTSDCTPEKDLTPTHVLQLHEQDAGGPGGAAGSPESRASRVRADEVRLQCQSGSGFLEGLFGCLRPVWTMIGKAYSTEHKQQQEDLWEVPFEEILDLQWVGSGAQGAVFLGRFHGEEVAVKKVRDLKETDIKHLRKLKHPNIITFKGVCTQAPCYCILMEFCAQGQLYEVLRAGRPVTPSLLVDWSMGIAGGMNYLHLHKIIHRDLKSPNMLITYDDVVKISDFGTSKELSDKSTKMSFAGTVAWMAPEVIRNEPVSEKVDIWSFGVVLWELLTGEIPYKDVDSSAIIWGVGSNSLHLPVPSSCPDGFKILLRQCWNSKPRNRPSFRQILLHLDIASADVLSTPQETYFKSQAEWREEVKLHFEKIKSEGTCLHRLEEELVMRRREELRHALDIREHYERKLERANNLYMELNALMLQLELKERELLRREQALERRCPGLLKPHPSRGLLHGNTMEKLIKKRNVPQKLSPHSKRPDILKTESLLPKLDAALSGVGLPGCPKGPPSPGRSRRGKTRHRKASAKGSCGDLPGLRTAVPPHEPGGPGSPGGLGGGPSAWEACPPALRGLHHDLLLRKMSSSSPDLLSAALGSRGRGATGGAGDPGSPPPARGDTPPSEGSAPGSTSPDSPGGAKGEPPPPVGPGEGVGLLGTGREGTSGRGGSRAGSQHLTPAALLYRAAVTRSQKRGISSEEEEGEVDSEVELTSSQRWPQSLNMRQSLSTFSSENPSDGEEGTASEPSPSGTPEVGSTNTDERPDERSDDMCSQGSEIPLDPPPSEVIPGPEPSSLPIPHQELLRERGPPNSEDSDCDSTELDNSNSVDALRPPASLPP

Sequence of Protein kinase C delta type (Homo sapiens) (Q05655 whole entry, looked up): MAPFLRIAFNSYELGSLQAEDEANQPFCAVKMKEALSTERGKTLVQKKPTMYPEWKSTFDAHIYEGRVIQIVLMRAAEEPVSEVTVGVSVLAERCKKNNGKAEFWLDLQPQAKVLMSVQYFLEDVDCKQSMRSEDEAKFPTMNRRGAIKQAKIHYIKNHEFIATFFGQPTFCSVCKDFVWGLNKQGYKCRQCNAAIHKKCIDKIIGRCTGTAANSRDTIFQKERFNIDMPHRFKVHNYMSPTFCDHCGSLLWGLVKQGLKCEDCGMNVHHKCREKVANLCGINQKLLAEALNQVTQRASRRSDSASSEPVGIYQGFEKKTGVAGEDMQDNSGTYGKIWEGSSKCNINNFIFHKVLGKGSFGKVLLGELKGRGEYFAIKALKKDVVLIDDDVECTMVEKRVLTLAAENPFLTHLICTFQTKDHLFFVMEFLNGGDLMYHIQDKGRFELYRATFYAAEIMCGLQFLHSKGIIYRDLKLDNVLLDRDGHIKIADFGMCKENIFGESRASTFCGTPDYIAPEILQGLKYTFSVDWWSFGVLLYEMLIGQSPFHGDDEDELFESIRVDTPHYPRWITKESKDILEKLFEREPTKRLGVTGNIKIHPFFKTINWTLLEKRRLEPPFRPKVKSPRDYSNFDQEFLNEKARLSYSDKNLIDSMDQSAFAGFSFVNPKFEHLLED
Sequence of Cyclin-dependent kinase 5 (Q00535 whole entry, looked up): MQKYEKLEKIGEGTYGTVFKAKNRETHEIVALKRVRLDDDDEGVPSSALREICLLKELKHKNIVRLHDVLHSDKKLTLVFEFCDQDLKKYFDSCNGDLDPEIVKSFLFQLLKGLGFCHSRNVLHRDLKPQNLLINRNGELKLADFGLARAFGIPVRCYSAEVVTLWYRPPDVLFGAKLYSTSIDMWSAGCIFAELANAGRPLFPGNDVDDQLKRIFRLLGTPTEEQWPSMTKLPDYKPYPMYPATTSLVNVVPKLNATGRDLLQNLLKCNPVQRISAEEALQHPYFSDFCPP
Sequence of Serine/threonine-protein kinase tousled-like 2 (Homo sapiens) (Q86UE8 whole entry, looked up): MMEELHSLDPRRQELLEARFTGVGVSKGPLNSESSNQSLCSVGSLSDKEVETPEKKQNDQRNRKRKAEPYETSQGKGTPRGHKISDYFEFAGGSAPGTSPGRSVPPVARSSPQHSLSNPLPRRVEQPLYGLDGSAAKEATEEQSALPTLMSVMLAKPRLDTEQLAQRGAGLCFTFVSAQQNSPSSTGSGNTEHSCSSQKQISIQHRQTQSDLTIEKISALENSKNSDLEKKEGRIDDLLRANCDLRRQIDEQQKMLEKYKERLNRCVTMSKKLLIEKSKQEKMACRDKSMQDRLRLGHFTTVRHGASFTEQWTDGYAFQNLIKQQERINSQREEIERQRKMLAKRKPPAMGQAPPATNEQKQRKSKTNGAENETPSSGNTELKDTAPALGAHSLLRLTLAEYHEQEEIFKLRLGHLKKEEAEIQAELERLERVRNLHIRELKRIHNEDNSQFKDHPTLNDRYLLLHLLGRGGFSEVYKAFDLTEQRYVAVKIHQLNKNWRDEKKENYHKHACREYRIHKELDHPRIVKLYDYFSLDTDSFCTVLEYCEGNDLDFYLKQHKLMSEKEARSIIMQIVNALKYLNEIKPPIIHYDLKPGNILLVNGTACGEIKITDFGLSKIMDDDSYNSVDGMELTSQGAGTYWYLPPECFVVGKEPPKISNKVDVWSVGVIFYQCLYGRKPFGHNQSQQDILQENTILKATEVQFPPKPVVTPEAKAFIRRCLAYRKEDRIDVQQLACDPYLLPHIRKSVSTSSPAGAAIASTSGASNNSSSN

% of inhibition [1]: -290%
% of control [2]: -0.676%
SMILES: Cn1cc(-n2cnc3c(NCc4nc5cc(Cl)c(Cl)cc5[nH]4)nc(N4CCOCC4)nc32)cn1

% of inhibition [3]: 1.87%
% of inhibition [4]: 43.3%
SMILES: CC[C@@H]1[C@H](F)C(=O)N[C@@H]1COc1nccc2cc(C(N)=O)c(OC)cc12 [ZIMLOVISERTIB]

SMILES: COc1cc(Nc2nc(C)cc(-c3cnn4nc(OC)ccc34)n2)cc(C(F)(F)F)c1
% of control [5]: 89%

SMILES: CN(C)CCOc1ccc(-c2nc(-c3ccncc3)c(-c3ccc4c(c3)CC/C4=N\O)[nH]2)cc1
% of control [6]: 81%
% of control [7]: 49%
